Bounds are passed on as bounds.

Usually IC50 stands for the concentration needed to halve the response being measured. As a reminder, the EC50 is the concentration at which the effect is half-maximal.

Assay [1] concerns the target hGSK-3β (Homo sapiens, UniProt P49841). As to the kind of experiment: hGSK-3β inhibition. Type of assay: biochemical. Particulars: Table 2.
Assay [2] deals with LdGSK-3 (Leishmania donovani, UniProt A6N857). As to the kind of experiment: Inhibition of LdGSK-3 with Kinase Glo. The conditions noted are these: for IC50: Table 2, read-out: LdGSK-3 IC50; for % inhibition @ 10µM (initial screening on LdGSK3): Table S2; for percentage of inhibition of LdGSK-3: assayed at 10 µM. Type of assay: biochemical.
Experimental: Assessment of inhibition of LdGSK-3 with Kinase Glo^TM
The reaction was allowed to proceed for 30 min at 30 °C, then it was incubated at room temperature for another 10 min after addition of Kinase Glo reagents (Promega, Ref. V6712). ATP consumption by LdGSK-3 was measured indirectly through end-point luminescence measurement of each well in a Varioskan Flash microplate reader (Thermo).
Assay [3] relates to L. infantum promastigotes. The experiment in a line: Leishmanicidal assay on promastigotes (inhibition of MTT reduction). Type of assay: cell-based, Leishmania infantum. The conditions noted are these: Table S1; 72 h. The method, then: (§1) Leishmania parasites were resuspended with the corresponding drug concentration at 2 × 10^6 parasites/mL (final concentration) in their respective growth media in 96 microwell plates (200 µL/well). The parasites were allowed to growth for 72 h at 26 °C for promastigotes and 96 h at 32 °C for axenic amastigotes. Afterwards, inhibition of proliferation was measured by the inhibition of MTT reduction by the parasites. […] MTT reduction was allowed to proceed for 2 h at the respective temperature, and the resulting formazan solubilised by addition of 50 µL/well of 10% SDS. Afterwards, the plate was read at 595 nm in a BioRad Microplate-reader, model 680. Samples were made by triplicate and assays were repeated at least twice.
In general terms: Tetrazolium dyes change colour on reduction, which living cells bring about.

Assay [4] concerns L. pifanoi axenic amastigotes. The experiment in a line: Leishmanicidal assay on axenic amastigotes (inhibition of MTT reduction). The format is cell-based, Leishmania pifanoi. Particulars: Table S1; 96 h; read-out: L. pifanoi amast. ax EC50. As to the method:
as §1

Chain of hGSK-3β (P49841 whole entry): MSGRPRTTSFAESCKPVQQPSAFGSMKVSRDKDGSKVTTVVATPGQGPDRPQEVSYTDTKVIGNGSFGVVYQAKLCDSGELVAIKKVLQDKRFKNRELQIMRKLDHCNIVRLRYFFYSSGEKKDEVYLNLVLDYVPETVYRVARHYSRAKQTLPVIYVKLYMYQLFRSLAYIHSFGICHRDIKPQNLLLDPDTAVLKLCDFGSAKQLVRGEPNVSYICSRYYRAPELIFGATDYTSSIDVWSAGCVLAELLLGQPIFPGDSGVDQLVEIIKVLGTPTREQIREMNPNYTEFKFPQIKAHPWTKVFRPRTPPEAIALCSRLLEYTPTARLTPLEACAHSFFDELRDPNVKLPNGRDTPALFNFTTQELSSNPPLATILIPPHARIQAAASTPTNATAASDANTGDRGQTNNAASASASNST
Chain of LdGSK-3 (A6N857 entry or part of it): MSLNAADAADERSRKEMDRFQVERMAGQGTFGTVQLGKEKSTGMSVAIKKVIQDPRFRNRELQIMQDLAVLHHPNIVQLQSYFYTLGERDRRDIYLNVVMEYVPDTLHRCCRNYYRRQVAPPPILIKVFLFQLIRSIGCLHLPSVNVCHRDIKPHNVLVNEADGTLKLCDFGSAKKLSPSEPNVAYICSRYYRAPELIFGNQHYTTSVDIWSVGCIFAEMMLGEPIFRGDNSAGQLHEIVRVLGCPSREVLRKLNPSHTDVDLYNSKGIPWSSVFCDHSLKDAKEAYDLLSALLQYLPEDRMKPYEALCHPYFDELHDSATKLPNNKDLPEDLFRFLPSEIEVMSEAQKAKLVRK

`O=S(=O)(c1cccc(CSc2nnc(-c3ccc4c(c3)OCO4)o2)c1)N1CCOCC1` [Compound 151] yielded a half-maximal inhibitory concentration (IC50) in assay [1] of 20 ± 10 nM. In addition, in assay [2], the IC50 turned out to be 2540 ± 480 nM, the “% inhibition @ 10µM (initial screening on LdGSK3)” value (from here on “% inhibition @ 10µM”) turned out to be 61.89±2.34% and the “percentage of inhibition of LdGSK-3” value is listed as “higher than 50%”.

With `COc1ccc(CNC(=O)Nc2nc(C)c(C(C)=O)s2)cc1` [Compound 18], the EC50 in assay [3] and in assay [4] was over 50000 nM each time. Also, in assay [2] (Table S1, @10 µM), the LdGSK-3 % inhibition is under 20%.

Take `Cc1ccc(S(C)(=O)=O)cc1Nc1nccc(-c2sc(N)nc2-c2ccccc2)n1` [Compound 124]: the IC50 in assay [1] is 810 ± 340 nM. In assay [2], the IC50 was 6000 nM, the “% inhibition @ 10µM” value was found to be 70.59±3.12% and the “percentage of inhibition of LdGSK-3” value is “higher than 50%”.

`COc1ccc(Nc2nccc(N(C)c3n[nH]c4c(F)cccc34)n2)cc1S(C)(=O)=O` [Compound 95] displayed a half-maximal inhibitory concentration (IC50) in assay [1] of 1400 ± 250 nM. In addition, in assay [2], the IC50 is 460 ± 70 nM, the “% inhibition @ 10µM” value is given as 90.25±1.12% and the “percentage of inhibition of LdGSK-3” value is reported as “higher than 50%”.

Consider `Nc1nc(-c2ccccn2)nc(-n2nc(-c3cccc(C(F)(F)F)c3)cc2N)n1.O=C(O)C(F)(F)F` [Compound 26], for which, in assay [2], the “% inhibition @ 10µM” value amounted to 4.75±1.20%.

As for `O=C(Nc1nc(-c2ccccn2)cs1)c1ccc(S(=O)(=O)N2CCCCC2)cc1` [Compound 116], the “% inhibition @ 10µM” value in assay [2] is reported as 7.05±1.35%.

`Cc1nc2c(-c3nc(-c4ccc(N)cc4)n[nH]3)cccn2c1C` [Compound 111]: in assay [2], the “% inhibition @ 10µM” value was 7.35±4.65%.

With `O=C(CN(Cc1ccccn1)Cc1ccccn1)NCc1ccc2c(c1)OCO2.O=C(O)C(F)(F)F` [Compound 193], the “% inhibition @ 10µM” value in assay [2] is 2.65±4.15%.

Take `O=C(CCCNC(=O)c1ccc(Cl)cc1)Nc1nc(-c2ccccn2)cs1` [Compound 98]: the “% inhibition @ 10µM” value in assay [2] amounted to 8.50±1.10%.

Turning to `COc1cc2c(cc1OC)[C@H]1[C@@H](C)c3ccc(OC)c(OC)c3CN1CC2` [Compound 130], the “% inhibition @ 10µM” value in assay [2] was 12.85±2.80%.

Turning to `CC(CCc1ccccc1)NC(=O)CN(Cc1ccccn1)Cc1ccccn1.O=C(O)C(F)(F)F` (stereo not shown) [Compound 134], the “% inhibition @ 10µM” value in assay [2] is recorded as 5.25±1.70%.

Take `O=C(CN(Cc1ccccn1)Cc1ccccn1)NC1Cc2ccccc2C1.O=C(O)C(F)(F)F` [Compound 58]: the “% inhibition @ 10µM” value in assay [2] is recorded as 3.75±2.40%.

For `Nc1nc(-c2ccccn2)nc(N)c1Cc1c(F)cccc1Cl` [Compound 190], in assay [2], the “% inhibition @ 10µM” value was found to be 8.15±3.40%.

Take `O=C(Nc1nc(-c2ccc(F)cc2)cs1)c1ccc([N+](=O)[O-])s1` [Compound 132]: the “% inhibition @ 10µM” value in assay [2] amounted to 8.15±0.95%.

As to `CCOc1cc(NCCCN2CCN(C)CC2)c2ncccc2c1.Cl.Cl.Cl` [Compound 112], in assay [2], the “% inhibition @ 10µM” value was found to be 7.50±0.65%.

In the case of `Cn1c(CC(=O)NNC(=O)c2ccc3ccccc3n2)nc2ccccc21` [Compound 80], the “% inhibition @ 10µM” value in assay [2] turned out to be 7.95±1.65%.

In the case of `COc1ccc([N+](=O)[O-])cc1NC(=O)c1cc(Cl)ccc1O` [Compound 210], the “% inhibition @ 10µM” value in assay [2] is 17.65±3.55%.

As for `CCN(Cc1cccs1)C(=O)CSc1nnc(-c2ccc3c(c2)OCO3)o1` [Compound 197], the “% inhibition @ 10µM” value in assay [2] was 10.05±1.90%.

Turning to `N#Cc1cccc(CNc2ccc(-c3cnn(CC4CC4)c(=O)c3C#N)cc2)c1` [Compound 63], the “% inhibition @ 10µM” value in assay [2] is reported as -3.20±0.80%.

For the compound `COc1ccccc1C(=O)Nc1nnc(-c2ccc3c(c2)OCO3)s1` [Compound 162], the “% inhibition @ 10µM” value in assay [2] was 9.20±3.30%.

Consider `CC(c1ccccn1)N(C)Cc1nc2ccccc2n1C(C)C` (stereo not shown) [Compound 85], for which the “% inhibition @ 10µM” value in assay [2] came to 3.45±4.90%.

As to `O=C(c1ccc(O)c(Cl)c1)N1CCN(c2cnccn2)CC1` [Compound 96], in assay [2], the “% inhibition @ 10µM” value was found to be 1.65±2.40%.

`O=C(CN1CCN(S(=O)(=O)c2cccc([N+](=O)[O-])c2)CC1)Nc1ccc(Oc2ccccc2)cc1` [Compound 152]: in assay [2], the “% inhibition @ 10µM” value is -2.95±1.70%.

`CCc1ccc2nc(NC(=O)c3cc(N4CCOCC4)ccn3)sc2c1` [Compound 118]: in assay [2], the “% inhibition @ 10µM” value was found to be 22.80±3.55%.

Regarding `CC(C)Nc1nc(Cl)nc2ccccc12` [Compound 106], the “% inhibition @ 10µM” value in assay [2] is -4.60±0.90%.

On to `COc1ccc2ncc(Cl)c(CCN3CC[C@H](NCc4cc5c(cn4)OCS5)[C@@H](O)C3)c2n1` [Compound 183], for which the “% inhibition @ 10µM” value in assay [2] is 14.80±2.25%.

For the compound `COc1cnc2ccc(=O)n(CCN3CCC(NC/C=C/c4cc(F)ccc4F)CC3)c2c1` [Compound 84], the “% inhibition @ 10µM” value in assay [2] was determined as 3.55±2.20%.

Regarding `COc1ccccc1-n1c(SCC(=O)Nc2ccc3c(c2)OCO3)nc2c(c1=O)SCC2` [Compound 172], in assay [2], the “% inhibition @ 10µM” value amounted to 5.20±2.65%.

Take `CCS(=O)(=O)Nc1ccc(C2=NN(C(=O)c3cccs3)C(c3ccccc3OC)C2)cc1` (stereo not shown) [Compound 108]: the “% inhibition @ 10µM” value in assay [2] is 5.15±1.90%.

Turning to `COc1ccc(C(=O)[C@H]2C[C@@H]2CN(Cc2ccccn2)Cc2ccccn2)cc1` [Compound 107], the “% inhibition @ 10µM” value in assay [2] was -4.05±3.20%.

For `Nc1cc(-c2ccc3ncnc(N4CCOCC4)c3c2)cnc1N` [Compound 55], the “% inhibition @ 10µM” value in assay [2] was 0.55±3.00%.

`Cc1cc(N2CCc3ccccc3C2)nc(Nc2ccc(S(=O)(=O)N3CCOCC3)cc2)n1.Cl` [Compound 73]: in assay [2], the “% inhibition @ 10µM” value is reported as -3.05±0.35%.

As for `O=C1CN(C(=O)c2cccc(Nc3ncc(-c4ccc5c(c4)OCO5)cn3)c2)CCN1` [Compound 67], the “% inhibition @ 10µM” value in assay [2] came out at 5.65±3.60%.

Turning to `COc1ccc(Cl)cc1CC(=O)Nc1n[nH]c(-c2ccccn2)n1` [Compound 122], the “% inhibition @ 10µM” value in assay [2] was 3.95±2.45%.

In the case of `COCCn1c(-c2ccc3c(c2)OCO3)cnc1NCc1ccccc1OC.O=C(O)C(=O)O` [Compound 164], in assay [2], the “% inhibition @ 10µM” value is recorded as 1.15±1.40%.

Consider `CCS(=O)(=O)c1cccc(C(=O)Nc2nc(-c3ccccn3)cs2)c1` [Compound 165], for which the “% inhibition @ 10µM” value in assay [2] stood at 4.70±0.85%.

Take `Cc1ccc(Nc2nc(N)nc(CNC(c3nc4ccccc4[nH]3)C(C)C)n2)cc1` (stereo not shown) [Compound 79]: the “% inhibition @ 10µM” value in assay [2] stood at 6.40±1.30%.

Take `CC1CCCN(S(=O)(=O)c2ccc(C(=O)Nc3nc(-c4ccccn4)cs3)cc2)C1` (stereo not shown) [Compound 202]: in assay [2], the “% inhibition @ 10µM” value is listed as 6.50±2.15%.

In the case of `Oc1c(-c2n[nH]c(Cc3ccc(F)cc3)n2)ncc2cccnc12` [Compound 102], the “% inhibition @ 10µM” value in assay [2] came to 4.05±3.10%.

As to `CCCCN(C(=O)c1ccc(NC(=O)C(C)C)cc1)c1ccccc1` [Compound 168], the “% inhibition @ 10µM” value in assay [2] was determined as 14.15±2.15%.

In the case of `C=CCN(Cc1cccs1)C(=O)CSc1nnc(-c2ccc3c(c2)OCO3)o1` [Compound 206], in assay [2], the “% inhibition @ 10µM” value worked out at 10.00±0.90%.

Regarding `CCN(CC)c1nc(N(C)C)nc2c1CN(Cc1ccccc1)CC2` [Compound 146], in assay [2], the “% inhibition @ 10µM” value amounted to 11.85±0.55%.

For `CCNc1cc(-c2ccccn2)nc(Nc2ccc(OC)cc2)n1` [Compound 45], the “% inhibition @ 10µM” value in assay [2] is -2.50±5.50%.

On to `Cc1cc(-c2cccc3ccccc23)nc2nc(N)nc(N)c12` [Compound 57], for which, in assay [2], the “% inhibition @ 10µM” value was determined as 6.10±3.15%.

As for `COc1cccc(C(=O)[C@H]2C[C@@H]2CN(Cc2ccccn2)Cc2ccccn2)c1` [Compound 153], the “% inhibition @ 10µM” value in assay [2] is -5.50±2.15%.

As for `O=C(CN(Cc1ccccn1)Cc1ccccn1)NCc1ccc(-c2csnn2)cc1.O=C(O)C(F)(F)F` [Compound 154], the “% inhibition @ 10µM” value in assay [2] came to 2.50±1.45%.

As for `CN(Cc1nc2ccc(C(=O)NCC3CCCCC3)cc2[nH]1)C1CCCc2cccnc21.O=C(O)C(F)(F)F` (stereo not shown) [Compound 28], in assay [2], the “% inhibition @ 10µM” value is recorded as 1.15±1.75%.

Turning to `Cn1nc(C(=O)N2CCc3ccccc32)c2c1CCS(=O)(=O)C2` [Compound 30], in assay [2], the “% inhibition @ 10µM” value amounted to 5.20±1.90%.

In the case of `CCc1nn(-c2ncc(F)c(NC(C)C)n2)c(N)c1C1CCCCC1` [Compound 41], in assay [2], the “% inhibition @ 10µM” value was determined as 7.05±1.35%.

Consider `Cc1cc(C)n(-c2nc(NC(C)C)nc(NC(C)(C)C)n2)n1` [Compound 158], for which, in assay [2], the “% inhibition @ 10µM” value is reported as 7.85±3.95%.

Turning to `O=C(COc1nn(-c2ccccc2)c2ncccc12)NCc1ccccc1` [Compound 180], the “% inhibition @ 10µM” value in assay [2] was 17.50±3.45%.

For `COc1ccc(C2CC(c3ccc(NS(C)(=O)=O)cc3)=NN2C(=O)c2cccs2)cc1OC` (stereo not shown) [Compound 156], in assay [2], the “% inhibition @ 10µM” value worked out at 11.90±1.75%.

With `COc1cc(Cl)c(C)cc1NC(=O)c1ccc([N+](=O)[O-])s1` [Compound 176], the “% inhibition @ 10µM” value in assay [2] is on record as 8.55±1.75%.

Take `O=C(Nc1n[nH]c(-c2ccccn2)n1)C1CC1c1ccccc1` (stereo not shown) [Compound 76]: in assay [2], the “% inhibition @ 10µM” value came to 5.70±0.50%.

As for `Cc1ccccc1CNc1cc(C2CC2)nc(-c2nccn2C)n1.O=C(O)C(F)(F)F` [Compound 49], the “% inhibition @ 10µM” value in assay [2] is recorded as 5.60±2.35%.

With `Nc1nc(-c2ccccc2)cc(-c2nc3ncccc3[nH]2)n1` [Compound 169], the “% inhibition @ 10µM” value in assay [2] came out at 32.90±2.70%.

These data come from article PMC6882465, “Towards discovery of new leishmanicidal scaffolds able to inhibit Leishmania GSK-3” (Journal of Enzyme Inhibition and Medicinal Chemistry, 2019).
